The record followed here is patent US4602035A, “Antidepressant (3-aryl-2,3-dihydrobenzofuran-3-yl)alkylamines” (Hoechst-Roussel Pharmaceuticals Inc., priority 1983, dated 1986).

The subject of test [1] is 2-phenyl-1,4-benzoquinone-induced writhing in mice. Kind of test: 2-phenyl-1,4-benzoquinone-induced writhing (PQW) test in mice (analgesic activity). In kind it is in vivo. The note with it: for inhibition in vivo at 10 mg/kg / ED50: Mus musculus, sc; for inhibition in vivo at 10 mg/kg: 10 mg/kg s.c., read-out: PQW Percent writhing inhib. @ 10 mg/kg s.c.; for PQW Percent writhing inhib.: s.c. From the text:
Compounds I of the present invention are also useful as analgesic agents due to their ability to alleviate pain in mammals. […] Exptl. Biol. Med., 95, 729 (1957)].
A general note: In writhing tests, fewer writhes than in controls are read as antinociception.

The subject of test [2] is Tetrabenazine induced ptosis in mice. Kind of test: Prevention of tetrabenazine (TBZ) induced ptosis in mice (antidepressant activity). In kind it is in vivo. The note with it: Mus musculus; for inhibition in vivo at 20 mg/kg: 20 mg/kg i.p., read-out: TBZ Percent ptosis inhit. @ 20 mg/kg i.p. The protocol: The method used is as follows.
Male mice weighing 20 to 30 grams are used in test groups of five subjects. All compounds are dissolved, or suspended with one drop of a non-ionic surfactant in distilled water and administered in volumes of 10 ml/kg of body weight. Tetrabenazine (TBZ) solution is made from methanesulfonate salt and the concentration is adjusted to enable the administration of 40 mg/kg of base by intraperitoneal injection (i.p.).
If the test compound is administered intraperitoneally, TBZ is injected 30 minutes after administration. If the test compound is administered orally (p.o.), TBZ is injected 60 minutes after the administration. A control group receives solvent and TBZ by the same route and at the same intervals as the drug groups.
The total score for each group of five will therefore be from 0 to 20 and these scores are used as indications of drug activity.
The vehicle-control group score is used as a determinate of the validity of each test.
A linear-regression analysis is used to estimate ED50 values.

The mark [3] stands for this setting: footnote a: determined by oral administration, mice, TBZ 40 mg/kg i.p., read-out: TBZ ED50 i.p.

Counter-ions that a name gives are not always drawn. Like-named read-outs stand apart in the source and are kept apart here.

As usually defined, the ED50 is the midpoint of the dose-response relation. Turning to `CNCCC1(c2ccccc2)COc2ccccc21.Cl` (stereo not shown) [2-(3-Phenyl-2,3-dihydrobenzofuran-3-yl)-N-methylethylamine hydrochloride], the inhibition in vivo at 10 mg/kg in test [1] came out at 53%. In addition, the 50% effective dose (ED50) in test [2] (setting [3]) amounted to 4.99 mg/kg. As for `CN(CCCC1(c2ccccc2)COc2ccccc21)CC1CC1` (stereo not shown) [3-(3-Phenyl-2,3-dihydrobenzofuran-3-yl)-N-cyclopropylmethyl-N-methylpropylamine oxalate], the inhibition in vivo at 10 mg/kg in test [1] is 48%. Moreover, the inhibition in vivo at 20 mg/kg in test [2] (ip, mice) came out at 10%.

Turning to `CN(CCCC1(c2ccccc2)COc2ccccc21)CCc1ccccc1` (stereo not shown) [3-(3-Phenyl-2,3-dihydrobenzofuran-3-yl)-N-methyl-N-phenethylpropylamine oxalate], the inhibition in vivo at 10 mg/kg in test [1] was found to be 46%. Besides, in test [2] (ip, mice), the inhibition in vivo at 20 mg/kg is 0%. As to `CN(CCC#N)CCC1(c2ccccc2)COc2ccccc21` (stereo not shown) [2-(3-Phenyl-2,3-dihydrobenzofuran-3-yl)-N-(2-cyanoethyl)-N-methylethylamineoxalate], in test [1] (footnote b: at 20 mg/kg), the “PQW Percent writhing inhib.” value is recorded as 33%. Moreover, the inhibition in vivo at 20 mg/kg in test [2] (ip, mice) stood at 21%. Regarding `CN(CCC1(c2ccccc2)COc2ccccc21)C(=O)OCC(Cl)(Cl)Cl` (stereo not shown) [2-(3-Phenyl-2,3-dihydrobenzofuran-3-yl)-N-(2,2,2-trichloroethoxycarbonyl)-N-methylethylamine], the inhibition in vivo at 20 mg/kg in test [2] (ip, mice) is 6%.

Take `Cc1ccccc1C1(CCN(C)C)COc2ccccc21` (stereo not shown) [3-[3-(2-Tolyl)-2,3-dihydrobenzofuran-3-yl]-N,N-dimethylethylamine fumarate]: in test [1], the inhibition in vivo at 10 mg/kg is 34%. In addition, the inhibition in vivo at 20 mg/kg in test [2] (ip, mice) was found to be 10%. Take `CN(C)CCC1(c2ccccc2)COc2ccccc21.O=C(O)C(=O)O` (stereo not shown) [2-(3-Phenyl-2,3-dihydrobenzofuran-3-yl)-N,N-dimethylethylamine oxalate]: in test [1] (footnote b: at 20 mg/kg), the “PQW Percent writhing inhib.” value came to 49%. The ED50 in test [2] (setting [3]) stood at 3.03 mg/kg. `Cc1ccc(C2(CCN(C)C)COc3ccccc32)cc1` (stereo not shown) [3-[3-(4-Tolyl)-2,3-dihydrobenzofuran-3-yl]-N,N-dimethylethylamine fumarate]: the inhibition in vivo at 10 mg/kg in test [1] amounted to 61%. The inhibition in vivo at 20 mg/kg in test [2] (ip, mice) was found to be 20%.

`CN(C)CCCC1(c2ccccc2)COc2ccccc21.O=C(O)C(=O)O` (stereo not shown) [3-(3-Phenyl-2,3-dihydrobenzofuran-3-yl)-N,N-dimethylpropylamine oxalate]: the “PQW Percent writhing inhib.” value in test [1] (footnote c: at 25 mg/kg) is recorded as 59%. Further, in test [2] (ip, mice), the inhibition in vivo at 20 mg/kg stood at 37%. Regarding `CN(CCC1(c2ccccc2)COc2ccccc21)CC1CC1.O=C(O)/C=C/C(=O)O` (stereo not shown) [2-(3-Phenyl-2,3-dihydrobenzofuran-3-yl)-N-cyclopropylmethyl-N-methylethylamine fumarate], the 50% effect level in test [1] (ED50) was put at a dose of 6.27 mg/kg. In addition, in test [2] (ip, mice), the inhibition in vivo at 20 mg/kg was 22%. On to `CNCCCC1(c2ccccc2)COc2ccccc21.Cl` (stereo not shown) [3-(3-Phenyl-2,3-dihydrobenzofuran-3-yl)-N-methylpropylamine hydrochloride], for which the inhibition in vivo at 10 mg/kg in test [1] was 54%. Further, in test [2] (ip, mice, TBZ 40 mg/kg i.p., read-out: TBZ ED50 i.p.), the ED50 was determined as 13.7 mg/kg. Regarding `CN(C)CCCC1(c2ccccc2)COc2ccc(Cl)cc21.O=C(O)C(=O)O` (stereo not shown) [3-(3-Phenyl-5-chloro-2,3-dihydrobenzofuran-3-yl)-N,N-dimethylpropylamine oxalate], the “PQW Percent writhing inhib.” value in test [1] (footnote b: at 20 mg/kg) is on record as 38%. Besides, the inhibition in vivo at 20 mg/kg in test [2] (ip, mice) came to 15%. Consider `CN(CCCC1(c2ccccc2)COc2ccccc21)C(=O)OCC(Cl)(Cl)Cl` (stereo not shown) [3-(3-Phenyl-2,3-dihydrobenzofuran-3-yl)-N-(2,2,2-trichloroethoxycarbonyl)-N-methylpropylamine], for which, in test [1], the inhibition in vivo at 10 mg/kg was determined as 32%. Consider `CN(C#N)CCC1(c2ccccc2)COc2ccccc21` (stereo not shown) [2-(3-Phenyl-2,3-dihydrobenzofuran-3-yl)-N-cyano-N-methylethylamine], for which the inhibition in vivo at 10 mg/kg in test [1] amounted to 59%. In addition, in test [2] (ip, mice), the inhibition in vivo at 20 mg/kg came to 20%. `CN(C)CCCN1c2ccccc2CCc2ccccc21` [imipramine, reference compound]: the ED50 in test [2] (po, read-out: antidepressant ED50) came out at 5.5 mg/kg. Turning to `CN(CCc1ccccc1)CCC1(c2ccccc2)COc2ccccc21.O=C(O)/C=C/C(=O)O` (stereo not shown) [2-(3-Phenyl-2,3-dihydrobenzofuran-3-yl)-N-methyl-N-phenethylethylamine fumarate], the ED50 in test [1] was 20 mg/kg. Further, the inhibition in vivo at 20 mg/kg in test [2] (ip, mice) is 17%. In the case of `CN(C)CCC1(c2ccccc2F)COc2ccccc21` (stereo not shown) [3-[3-(2-Fluorophenyl)-2,3-dihydrobenzofuran-3-yl]-N,N--dimethylethylamine fumarate], the inhibition in vivo at 10 mg/kg in test [1] came to 35%. The inhibition in vivo at 20 mg/kg in test [2] (ip, mice) was 60%.
